Measurements reported in the NIST ThermoML archive (doi:10.1016/j.jct.2019.105883).

Experiment: xn = mol fraction of the nth substance listed
Conditions: 101.3 kPa, Liquid; for viscosity: Concentric cylinders viscometry; for mass density: Vibrating tube method

CCN.Cl [ethylammonium chloride] + CC(N)=O
Conditions	mass density, 313.2 K [kg/m3]	mass density, 323.2 K [kg/m3]	mass density, 333.2 K [kg/m3]	mass density, 343.2 K [kg/m3]	mass density, 353.2 K [kg/m3]	viscosity, 313.2 K [mPa·s]	viscosity, 323.2 K [mPa·s]	viscosity, 333.2 K [mPa·s]	viscosity, 343.2 K [mPa·s]	viscosity, 353.2 K [mPa·s]
x1 = 0.252	1041	1034.3	1027.6	1020.9	1014.2	32.6	27.8	21.9	18.4	15.2
x1 = 0.337	1042.8	1036.4	1030	1023.7	1017.3	58	39.2	29.1	23.3	18.6
x1 = 0.5	1043.8	1037.9	1032	1026.2	1020.4	71.5	48.4	35.8	28.2	23.5
